PubChem BioAssay AID330 (DTP/NCI, 2004)
Values joined by “and” are separate entries in the source; they are usually repeats but may differ in a detail not shown here. Equal values may be shown once. Toxic doses and inconclusive results are not listed. How the source made its calls: active means survival T/C of 150% or more; inactive means T/C below 125% in these data.

Test system: P388 leukemia ip, CD2F1 mice, survival T/C
Assay: NCI In Vivo Anticancer Drug Screen. Data for tumor model P388 Leukemia (intraperitoneal) in CD2F1 (CDF1) mice
Conditions: endpoint: median survival time, higher = longer survival
In short: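 Mice carrying the transplanted tumor received test compound or vehicle. Survival was recorded in each group, and the value is the treated-group measurement divided by that of the vehicle-treated control group.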

[1] = dose: 50.0 mg/kg/injection, schedule: Q01DX005 (ip), vehicle: Klucel (hydroxypropylcellulose) (HPC)
[2] = dose: 100.0 mg/kg/injection, schedule: Q01DX005 (ip), vehicle: Klucel (hydroxypropylcellulose) (HPC)
[3] = dose: 200.0 mg/kg/injection, schedule: Q01DX005 (ip), vehicle: Klucel (hydroxypropylcellulose) (HPC)
[4] = dose: 60.0 mg/kg/injection, schedule: Q01DX005 (ip), vehicle: saline with Tween-80
[5] = dose: 120.0 mg/kg/injection, schedule: Q01DX005 (ip), vehicle: saline with Tween-80
[6] = dose: 240.0 mg/kg/injection, schedule: Q01DX005 (ip), vehicle: saline with Tween-80
[7] = dose: 25.0 mg/kg/injection, schedule: Q01DX009 (ip), vehicle: saline with Tween-80
[8] = dose: 50.0 mg/kg/injection, schedule: Q01DX009 (ip), vehicle: saline with Tween-80
[9] = dose: 25.0 mg/kg/injection, schedule: Q04DX003 (ip), vehicle: saline
[10] = dose: 50.0 mg/kg/injection, schedule: Q04DX003 (ip), vehicle: saline
[11] = dose: 100.0 mg/kg/injection, schedule: Q04DX003 (ip), vehicle: saline
[12] = dose: 50.0 mg/kg/injection, schedule: Q01DX005 (ip), vehicle: saline with Tween-80
[13] = dose: 100.0 mg/kg/injection, schedule: Q01DX005 (ip), vehicle: saline with Tween-80
[14] = dose: 200.0 mg/kg/injection, schedule: Q01DX005 (ip), vehicle: saline with Tween-80
[15] = dose: 60.0 mg/kg/injection, schedule: Q01DX005 (ip), vehicle: Klucel (hydroxypropylcellulose) (HPC)
[16] = dose: 120.0 mg/kg/injection, schedule: Q01DX005 (ip), vehicle: Klucel (hydroxypropylcellulose) (HPC)
[17] = dose: 240.0 mg/kg/injection, schedule: Q01DX005 (ip), vehicle: Klucel (hydroxypropylcellulose) (HPC)

Measured: T/C

O=C1c2ccccc2NC(O)c2cccn21 (stereo not drawn)
inactive: dose: 0.1 mg/kg/injection, schedule: Q01DX005 (ip), vehicle: water 89 % of control | dose: 0.2 mg/kg/injection, schedule: Q01DX005 (ip), vehicle: water 91 % of control | dose: 0.4 mg/kg/injection, schedule: Q01DX005 (ip), vehicle: water 93 % of control | dose: 0.8 mg/kg/injection, schedule: Q01DX005 (ip), vehicle: water 91 % of control | dose: 1.6 mg/kg/injection, schedule: Q01DX005 (ip), vehicle: water 93 % of control | dose: 5.0 mg/kg/injection, schedule: Q01DX005 (ip), vehicle: distilled water + Tween-80 99 % of control | dose: 10.0 mg/kg/injection, schedule: Q01DX005 (ip), vehicle: distilled water + Tween-80 99 % of control | dose: 20.0 mg/kg/injection, schedule: Q01DX005 (ip), vehicle: distilled water + Tween-80 99 % of control | dose: 40.0 mg/kg/injection, schedule: Q01DX005 (ip), vehicle: distilled water + Tween-80 100 % of control | dose: 80.0 mg/kg/injection, schedule: Q01DX005 (ip), vehicle: distilled water + Tween-80 95 % of control

CN(C)C(=O)c1cccc(COc2ccc(N3C(N)=NC(N)=NC3(C)C)cc2Cl)c1
inactive: dose: 4.0 mg/kg/injection, schedule: Q01DX001 (ip), vehicle: saline 96 % of control | dose: 8.0 mg/kg/injection, schedule: Q01DX001 (ip), vehicle: saline 99 % of control | dose: 8.0 mg/kg/injection, schedule: Q01DX009 (ip), vehicle: saline 107 % of control | dose: 16.0 mg/kg/injection, schedule: Q01DX001 (ip), vehicle: saline 95 % of control | dose: 16.0 mg/kg/injection, schedule: Q01DX009 (ip), vehicle: saline 100 % of control | dose: 16.0 mg/kg/injection, schedule: Q08DX002 (ip), vehicle: saline 100 % of control | dose: 32.0 mg/kg/injection, schedule: Q01DX001 (ip), vehicle: saline 93 % of control | dose: 32.0 mg/kg/injection, schedule: Q01DX009 (ip), vehicle: saline 111 % of control | dose: 32.0 mg/kg/injection, schedule: Q08DX002 (ip), vehicle: saline 110 % of control | dose: 64.0 mg/kg/injection, schedule: Q01DX001 (ip), vehicle: saline 96 % of control

O=C(Nc1ccccc1C1=NCCN1)c1ccc(C(=O)Nc2ccccc2C2=NCCN2)cc1
inactive: [1] 96 % of control | [2] 87 % of control | [3] 91 % of control

CCCCCc1cc(/C=C2/N=C(c3ccc[nH]3)C=C2OC)[nH]c1C
inactive: dose: 1.5 mg/kg/injection, schedule: Q01DX009 (ip), vehicle: saline 114 % of control | dose: 3.0 mg/kg/injection, schedule: Q01DX009 (ip), vehicle: saline 120 % of control and 123 % of control | dose: 6.0 mg/kg/injection, schedule: Q01DX009 (ip), vehicle: saline 107 % of control

O=C(O)[C@H](Cc1ccccc1)N1C(=O)N[C@@H](Cc2ccccc2)C1=O
inactive: [4] 96 % of control | [5] 104 % of control | [6] 99 % of control

C(CCc1nnc2c(n1)CCCC2)Cc1nnc2c(n1)CCCC2
inactive: [4] 99 % of control | [5] 88 % of control

CCCc1c2cc(OC)c(OC)cc2cc2c3cc(OC)c(OC)cc3cc[n+]12 (tested in a mixture with another compound)
inactive: [7] 102 % of control | [8] 111 % of control | dose: 100.0 mg/kg/injection, schedule: Q01DX009 (ip), vehicle: saline with Tween-80 109 % of control

CCCCCC(Cn1ccnc1)c1c(Cl)cccc1Cl (stereo not drawn)
inactive: [9] 103 % of control | [10] 100 % of control | [11] 91 % of control

O/N=C1C=C/C(=C/c2ccccc2)c2ccccc2/1
inactive: [1] 96 % of control | [2] 92 % of control | [3] 92 % of control

CCC1=[N+](C)c2ccccc2C1(C)C
inactive: [9] 100 % of control | [10] 99 % of control | [11] 107 % of control

CCN(CC)c1ccc(NC2=CC(=O)C(Nc3ccc(N(CC)CC)cc3)=CC2=O)cc1
inactive: [12] 91 % of control | [13] 89 % of control | [14] 89 % of control

CC1=C(C(N)=O)C(/C=C/c2ccccc2)NC(=S)N1 (stereo not drawn)
inactive: [15] 106 % of control | [16] 100 % of control | [17] 100 % of control

CCOC(=O)c1sc(=S)n(CC)c1C
inactive: [12] 107 % of control | [13] 99 % of control

CN(C)c1ccc(CN(Cc2ccccc2)CC(O)c2ccccc2)cc1 (stereo not drawn)
inactive: dose: 6.25 mg/kg/injection, schedule: Q01DX009 (ip), vehicle: saline with Tween-80 97 % of control | dose: 12.5 mg/kg/injection, schedule: Q01DX009 (ip), vehicle: saline with Tween-80 100 % of control | [7] 100 % of control | [8] 102 % of control

COc1cc([Se]c2ccccc2)ccc1N(C)C
inactive: dose: 30.0 mg/kg/injection, schedule: Q01DX005 (ip), vehicle: Klucel (hydroxypropylcellulose) (HPC) 101 % of control | [15] 107 % of control | [16] 100 % of control | [17] 113 % of control

CCCC/C=C(\C#N)SCC
inactive: dose: 37.5 mg/kg/injection, schedule: Q01DX009 (ip), vehicle: saline with Tween-80 100 % of control and 112 % of control and 118 % of control | dose: 75.0 mg/kg/injection, schedule: Q01DX009 (ip), vehicle: saline with Tween-80 105 % of control and 114 % of control and 119 % of control | dose: 150.0 mg/kg/injection, schedule: Q01DX009 (ip), vehicle: saline with Tween-80 106 % of control and 123 % of control | dose: 300.0 mg/kg/injection, schedule: Q01DX009 (ip), vehicle: saline with Tween-80 104 % of control

CC(C)CCCC(C)C1CCC2C3CCC4CC(=O)C(C5(O)C(=O)Nc6ccccc65)CC4(C)C3CCC12C (stereo not drawn)
inactive: dose: 6.25 mg/kg/injection, schedule: Q01DX009 (ip), vehicle: Klucel (hydroxypropylcellulose) (HPC) 95 % of control | dose: 12.5 mg/kg/injection, schedule: Q01DX009 (ip), vehicle: Klucel (hydroxypropylcellulose) (HPC) 95 % of control | dose: 200.0 mg/kg/injection, schedule: Q01DX009 (ip), vehicle: Klucel (hydroxypropylcellulose) (HPC) 90 % of control

CCn1cc(C(=O)O)c(=O)c2cc(Cl)c(-n3cccc3)cc21
inactive: [4] 95 % of control | [5] 99 % of control | [6] 94 % of control

CCSC(C(OC(C)=O)C(OC(C)=O)C(OC(C)=O)C(COC(C)=O)OC(C)=O)n1cnc2c(Cl)ncnc21 (stereo not drawn)
inactive: [12] 100 % of control | [13] 90 % of control | [14] 96 % of control

CC(=O)/C(C(=N)C(=O)c1ccccc1)=C(\C)O
inactive: [4] 96 % of control | [5] 98 % of control | [6] 99 % of control

COC1NC(=O)Oc2ccccc21 (stereo not drawn)
inactive: [12] 109 % of control and 97 % of control | [13] 108 % of control and 109 % of control | [14] 114 % of control
